“And” between values parts separate entries of the source, which are not always exact repeats. Identical values can stand only once. “Also recorded” adds a separate entry of the source.
What was measured:
[1] = test system: stage 2 neural stem cells (cells treated with stage 1 and stage 2 media); assay: HD-DoE experiment for stage 3 recipe, optimized for ASCL1; assay type: cell-based, human; settings: for factor contribution on expression of ASCL1: positive, model optimized for maximum expression of ASCL1 at 1700, FIG. 9
Method: To further guide the cells to medial ganglionic eminence progenitor fate, an additional HD-DoE experiment was performed for 3 days on cells that were treated with stage 1 and stage 2 media for total of 6 days prior to start of the experiment. This experiment included 13 effectors, LDN193189, A8301, GNF5837, AZD3147, GSI-XX, Takinib, PD0325901, PD173074, BLU9931, IGF-1, MHY1485, Purmorphamine and Prostratin. In this model, we focused on maximum expression of genes expressed in neuronal progenitor cells in medial ganglionic eminence (MGE) region including ASCL1, LHX6 and DLX1 (Silberberg et al. (2016) Neuron 92:59-74). When the model was optimized for maximum expression of ASCL1 at 1700, A8301, GSI-XX, Purmorphamine and Takinib, which is an inhibitor of TAK1 pathway, had the highest factor contributions, 18.1, 14.1, 12.7 and 10.1 respectively. […]

[2] = test system: stage 2 neural stem cells; assay: factor criticality analysis (dynamic profile analysis) of stage 3 recipe; assay type: cell-based, human; parameters: unit not given here; settings: other five factors present; for expression level of DLX1 when the effector is removed: 220 with all six factors; for expression level of LHX6 when the effector is removed: 240 with all six factors; for expression level of ASCL1 when the effector is removed: 1650 with all six factors
Method: To assess the impact of the elimination of each validated factor, dynamic profile analysis was used and compared the expression level of genes of interest in absence of each finalized factor while others are present. […] In the stage 3 recipe, each of the six finalized factors were removed while the other five factors remained present and the expression levels of ASCL1, DLX1 and LHX6 were assessed compared to the presence of all six factors. […] As expected, in the absence of IGF-1, the value of DLX1 increases to 410, however, ASCL1 and LHX6 decreased to 1390 and 220, respectively.

[3] = test system: human pluripotent stem cells; assay: additional HD-DoE experiment for stage 1 (forebrain differentiation from pluripotency), optimized for FEZF2; assay type: cell-based; settings: dynamic profile, FIG. 6
Method: To identify the recipe for stage 1 of differentiation, 96 different combinations of effectors generated using Design-of-Experiments compression through D-optimality were robotically prepared. The effector combinations were prepared in a basal media and were subsequently added to the cells, which were then allowed to differentiate. Three days later RNA extraction was performed, and gene expression was obtained using quantitative PCR analysis. The data were normalized and modeled using partial least squares regression analysis to the effector design, resulting in the generation of gene-specific models, which after model tuning for maximal Q2 predictive power, provided explanation of the effectors ability to control the expression of individual genes, combinatorially, and individually. Solutions within the tested space could then be explored to address desirability.
To further enhance the conditions for forebrain differentiation from pluripotency, an additional HD-DoE experiment was performed. Additional gene regulatory models were obtained that were used for preparation of the differentiation protocol. The factors in this experiment included LDN193189, PD173074, BLU9931, Purmorphamine, SC79, MK2206, ZM336372, PD0325901, CHIR99021, XAV939, UCLA-GP130, Tofacitinib and GO6983. […] Dynamic profile analysis was also used to assess the interaction between the effectors.

[4] = test system: forebrain-committed neural stem cells (stage 1 neural stem cells); assay: HD-DoE 12-factor experiment for stage 2 recipe, optimized for NKX2-1; assay type: cell-based, human; settings: for impact on expression of NKX2-1: model maximized for NKX2-1 / dynamic profile, FIG. 7 and 8
Method: To further guide the differentiation of forebrain-committed neural stem cells to ventral forebrain neural stem cells at stage 2, a HD-DoE experiment was performed for 3 days after termination of stage 1 treatment. At this time, we focused on maximum expression of NKX2-1 that is expressed in ventral forebrain region and minimum expression of PAX6 that is expressed in dorsal forebrain region. This 12-factor experiment included LDN193189, BMP7, PD0325901, MK2206, A8301, XAV939, CHIR99021, Purmorphamine, SANT-1, AGN193109, TTNPB and GSI-XX.

MGE progenitor cells = assay: HD-DoE 12-factor experiment for stage 4 recipe, optimized for MEF2C; assay type: cell-based, human
Source text: These effectors are small molecules or proteins. They are commonly used during stepwise differentiation of stem cells to specific fates. The choice of the effectors was based on current literature on neural induction in forebrain region of developing brain and differentiation of stem cells to neural progenitors.
To evaluate the effectors, experiments with at least 8 factors were designed that can assess the response of cells to 48 or more different combinations of effectors in a range of concentrations. To analyze the models, we focused on expression of genes involved in development and patterning of the forebrain interneurons maturation including LHX6 (Yuan et al. (2018) Elife, 7:e37382), DLX5 (Wang et al. (2010) J. Neuroscience 30:5334-5345), ASCL1 (Shi et al. (2016) J. Biol. Chem. 291:13560-13570). At later stages we focused on interneuron maturation genes including Parvalbumin and absence of somatostatin (Horn and Nicoll (2018) Proc. Natl. Acad. Sci. 115:589-594). The impacts of each effector on gene expression level are defined by a parameter called factor contribution that is calculated for each effector during the modeling.
To identify the recipe of stage 4 of differentiation, 48 different combinations of effectors generated using Design-of-Experiments compression through D-optimality were robotically prepared. The effector combinations were prepared in a basal media and were subsequently added to the cells, which were then allowed to differentiate. Three days later RNA extraction was performed, and gene expression was obtained using quantitative PCR analysis. The data was normalized and modeled using partial least squares regression analysis to the effector design, resulting in the generation of gene-specific models, which after model tuning for maximal predictive power, provided explanation of the effectors ability to control the expression of individual genes, combinatorically, and individually. Solutions within the tested space could then be explored to address desirability. […] Valproic Acid can inhibit histone deaceylases and increase γ-aminobutyric acid (GABA). […] GDNF is the […] Glial cell line-derived neurotrophic factor and can activate the GDNF pathway.
To find the set of factors that have the potential to optimize MEF2C in this experiment, a new assessment was done through dynamic profile analysis with focus on maximal expression of MEF2C (FIG. 20).

[5] = test system: human pluripotent stem cells; assay: HD-DoE 12-factor experiment for stage 1 recipe, gene expression by quantitative PCR after 3 days; assay type: cell-based
Source text: This example utilizes a method of High-Dimensional Design of Experiments (HD-DoE), as previously described in Bukys et al. (2020) […] 23:101346. The method employs computerized design geometries to simultaneously test multiple process inputs and offers mathematical modeling of a deep effector/response space. The method allows for finding combinatorial signaling inputs that control a complex process, such as during cell differentiation. It allows testing of multiple plausible critical process parameters, as such parameters impact output responses, such as gene expression. Because gene expression provides hallmark features of the phenotype of, for example, a human cell, the method can be applied to identify, and understand, which signaling pathways control cell fate. In the current example, the HD-DOE method was applied with the intent to find conditions for induction of […] neural progenitor-expressed genes, directly from the pluripotent stem cell state. To develop the recipe for each stage, the impact of agonists and antagonists of multiple signaling pathways (herein called effectors) on the expression of two sets of 53 pre-selected genes, after a 3-day treatment, has been tested and modeled. These effectors are small molecules or proteins that are commonly used during stepwise differentiation of stem cells to specific fates. Choice of the effectors were based on current literature on neural induction in forebrain region of developing brain and differentiation of stem cells to neural progenitors. To test the effectors, experiments with at least 8 factors were designed that can assess the response of cells to 48 or more different combinations of effectors in a range of concentrations. To analyze the models, we focused on expression of genes involved in development and patterning of the anterior neuroectoderm and forebrain including OTX2 (Hoch et al. (2015) Cell Reports 12:482-494), SIX3 (Lagutin et al. (2003) Genes & Development 17:368-379) and FEZF2 (Zhang et al. (2014) Development 141:4794-[…]). At later stages we focused on dorsoventral patterning of telencephalon and gene expressed in ventral forebrain including NKX2-1 and absence of PAX6 which is a dorsal forebrain marker (Stoykova et al. (2000) J. Neurosci. 20:8042-8050). The impact of each effector on gene expression level is defined by a parameter called factor contribution that is calculated for each effector during the modeling. To identify the recipe for stage 1 of differentiation, 96 different combinations of effectors generated using Design-of-Experiments compression through D-optimality were robotically prepared. The effector combinations were prepared in a basal media and were subsequently added to the cells, which were then allowed to differentiate. Three days later RNA extraction was performed, and gene expression was obtained using quantitative PCR analysis. […] Solutions within the tested space could then be explored to address desirability. Optimizing for maximal expression of SIX3 at 3300 and FEZF2 1355 expression values led to robust solutions. This model was derived from testing 12 effectors including AGN193109, LDN193189, CHIR99021, XAV939, IGF2, Purmorphamine, 4-oxo-RA, TTNPB, SR11237, FGF8, PD0325901 and […]. […] The model was also optimized for maximum expression of FEZF2 separately at 3576 expression value to find any additional factors that can boost expression of forebrain genes. […] To find the set of factors that have the potential to optimize all 3 genes in this experiment, a new assessment was done through dynamic profile analysis with focus on maximal expression of OTX2, FEZF2 and SIX3.

[6] = dynamic profile analysis, FIG. 10
[7] = dynamic profile analysis, FIG. 4

In the case of Cc1cccc(-c2nn(C(=S)Nc3ccccc3)cc2-c2ccnc3ccccc23)n1 [A8301], the “impact on expression of ASCL1” value [1, 6] is reported as “positive trends; also recorded: Positive impact”, the “impact on expression of DLX1” value [1, 6] is reported as “did not have a significant negative impact” and the “impact on expression of LHX6” value [1, 6] is reported as “positive trends; also recorded: Positive impact”. For the same molecule, the “factor contribution on expression of ASCL1” value [1] was 18.1 and 18, the “expression level of DLX1 when the effector is removed” value (shortened to “expression level of DLX1”) [2] was “did not change significantly” and the “expression level of LHX6 when the effector is removed” value (“expression level of LHX6” below) [2] was “did not change significantly”. For the same molecule, the “expression level of ASCL1 when the effector is removed” value [2] was 1000.

Cc1ccc(NC(=O)Nc2cc(C(F)(F)F)ccc2F)cc1Nc1ccc2c(c1)NC(=O)/C2=C\c1ccc[nH]1 [GNF5837] was tested, and the “factor contribution on expression of ASCL1” value [1] was 9.4, the “expression level of DLX1” value [2] was “did not have a significant impact” and the “expression level of LHX6” value [2] was 160. The “expression level of ASCL1 when the effector is removed” value [2] was 1300.

COc1ccc2c(c1)c(C1=C(c3c[nH]c4ccccc34)C(=O)NC1=O)cn2CCCN(C)C [GO6983] was tested, and the “impact on expression of FEZF2” value [3] was “positive impact”.

In the case of NC1(c2ccc(-c3nc4ccn5c(=O)[nH]nc5c4cc3-c3ccccc3)cc2)CCC1 [MK2206], the “impact on expression of FEZF2” value [3] is reported as “positive impact” and the “impact on expression of NKX2-1” value [4] is reported as “increase its expression level”.

With Cc1nn(-c2ccccc2)c(C)c1/C=N/N1CCN(Cc2ccccc2)CC1 [SANT-1] the “impact on expression of NKX2-1” value [4] was “negative impact” and the “factor contribution on expression of NKX2-1” value ([4]; negative role, model optimized for maximum expression of NKX2-1, FIG. 7) was 26.3.

NC(=O)c1ccc(-c2nc(-c3ccc4c(c3)OCO4)c(-c3ccccn3)[nH]2)cc1 [SB431542] was tested, and the “impact on expression of MEF2C” value (MGE progenitor cells; dynamic profile analysis, FIG. 20) was “negative effect” and the “factor contribution on expression of MEF2C” value (MGE progenitor cells; significant negative effect, model optimized for maximal expression of MEF2C) was 7.9.

For C/C(=C\c1ccc(C(=O)O)cc1)c1ccc2c(c1)C(C)(C)CCC2(C)C [TTNPB], the “impact on expression of NKX2-1” value [4] was “negative impact”, the “factor contribution, important input for high expression of SIX3” value ([5]; FIG. 2 legend, model optimized for maximum expression of SIX3 as printed) was 23.7 and the “impact on expression of OTX2” value [5, 7] was “negative impact”. The “impact on expression of SIX3” value [5, 7] was “negative impact”, the “factor contribution on expression of FEZF2” value ([5]; positive impact, model optimized for maximum expression of FEZF2) was 24 and the “factor contribution on expression of SIX3” value ([5]; significant negative effect, model optimized for maximal expression of SIX3) was 21. For the same molecule, the “factor contribution on expression of OTX2” value ([5]; significant negative impact, model of maximum expression of OTX2) was 29 and 28.8.

With CCCn1/c(=N/C(=O)c2cccc(C(N)=O)c2)[nH]c2ccccc21 [Takinib] the “factor contribution on expression of ASCL1” value [1] was 10.1, the “expression level of DLX1” value [2] was 180 and the “expression level of LHX6” value [2] was 170.
